Data published in US20040077531A1, “Use of galanin-like peptide” (priority 2001, published 2004).

Assays:
Type in all cases: in vivo, rat
[1] = tested on: blood LH levels; experiment: Blood LH levels after intraventricular GALP in Zucker fatty and Zucker lean rats; conditions: 1 nmol third ventricle
Procedure: Effects of GALP administration into the third ventricle on LH levels in plasma were examined using Zucker obese rats having an abnormality of Leptin receptor. Briefly, adult male Zucker obese rats (body weights at the time of surgery: fatty: 410-430 g; lean: 290-310 g) were anesthetized by intraperitoneal administration of 50 mg/kg pentobarbital and fixed in a stereotaxic apparatus for rat brain. The incisor bar was set 3.3 mm below the interaural line. The skull surface was exposed, and a hole was drilled in the skull with a dental drill in order to implant a guide cannula AG-8 (inside dia. 0.4 mm, outside dia. 0.5 mm; Eicom) in the third ventricle. Further, four anchor screws were embedded around the hole. A stainless guide cannula (AG-12) was inserted so that its tip was located above the third ventricle. The stereotaxic coordinates were set as follows according to the atlas of Paxinos and Watson (1998): for Zucker fatty, AP: −1.00 mm, L: 0.0 mm, H: 5.6 mm from bregma, and for Zucker lean, AP: −0.9 mm, L: 0.0 mm, H: 5.4 mm from bregma. The guide cannula was fixed onto the skull with instant glue, dental cement and the anchor screws. […]
The rats were allowed about one week for recovery after the implantation of the guide cannula. […] The LH levels in the plasma were measured by radioimmunoassay (Amersham).

[2] = tested on: pituitary hormone levels in plasma; experiment: Pituitary hormone levels in plasma after GALP administration into the third ventricle; conditions: Wistar rats
Procedure: Effects of GALP administration into the third ventricle on pituitary hormone levels in plasma were examined. Briefly, adult male Wistar rats (body weight: 350-380 g at the time of surgery) were anesthetized by intraperitoneal administration of 50 mg/kg pentobarbital and fixed in a stereotaxic apparatus for rat brain. The incisor bar was set 3.3 mm below the interaural line. The skull surface was exposed, and a hole was drilled in the skull with a dental drill in order to implant a guide cannula AG-8 (inside dia. 0.4 mm, outside dia. 0.5 mm; Eicom) in the third ventricle. Further, four anchor screws were embedded around the hole. A stainless guide cannula (AG-12) was inserted so that its tip was located above the third ventricle. The stereotaxic coordinates were set as follows according to the atlas of Paxinos and Watson (1998): AP: −0.8 mm, L: 0.0 mm, […] from bregma. The guide cannula was fixed onto the skull with instant glue, dental cement and the anchor screws. […]
The rats were allowed about one week for recovery after the implantation of the guide cannula. […] Growth hormone (GH), thyroid-stimulating hormone (TSH), follicle-stimulating hormone (FSH), LH, prolactin and adorenocorticotropic hormone (ACTH) contained in the plasma were quantified by radioimmunoassay (GH, TSH, FSH, LH and prolactin; Amersham) (ACTH; Mitsubishi Kagaku).

[3] = tested on: blood LH levels; experiment: Blood LH level time course after intraventricular administration in freely moving Wistar rats; conditions: for blood LH level compared with the control group: third ventricle, 0-60 min
Procedure: A guide cannula was implanted in adult male Wistar rats treated in the same manner as described in Example 1. The rats were allowed about one week for recovery from the surgery. Then, they received another surgery so that blood samples can be taken from them moving freely. Briefly, the guide cannula-implanted rat was anesthetized by intraperitoneal administration of […] pentobarbital and fixed on an anatomical pad in face-up position. Then, the left jugular vein was exposed. A polyethylene tube SP35 (inside dia. 0.5 mm, outside dia. 0.9 mm; Natsume Seisakusho) was cut to give an about 30 cm length, filled with 200 U/ml heparin-containing physiological saline, inserted into the jugular vein about 4.5 cm, and fixed. The other end of the tube was passed subcutaneously through dorsal skin and exposed from the neck (dorsal).
After one night from the surgery, 300 μl of blood was collected from each rat using a 1 ml injection syringe for tuberculin and a 25-gauge injection needle (both Terumo Corp.) prior to the administration of rat GALP (a peptide consisting of the amino acid sequence as shown in SEQ ID NO: 33). In order to prevent blood coagulation, 10 μl of 300 KIU/ml aprotinin solution containing 3 mg/ml EDTA was added in advance into the injection syringe. The cap nut and the dummy cannula installed on the rat skull were removed. Instead of them, a stainless microinjection cannula (inside dia. 0.17 mm, outside dia. 0.35 mm; Eicom) connected with a Teflon tube (length 50 cm, inside dia. 0.1 mm, outside dia. 0.35 mm; Eicom) was inserted into the guide cannula. The length of the microinjection cannula was adjusted in advance so that 1 mm of it tip was exposed from the guide cannula. One end of the Teflon tube was connected with a microsyringe pump. […] Five minutes after the completion of the injection, the microinjection cannula was removed, and a dummy cannula was fixed again with a cap nut. […] The LH levels in the plasma were measured by radioimmunoassay (Amersham).

Substance: rat GALP (APAHRGRGGWTLNSAGYLLGPVLHLSSKANQGRKTDSALEILDLWKAIDGLPYSRSPRMT; Rat)
- blood LH levels compared with the control group ([1]; Zucker fatty rats, at 10, 20 and 30 min): significant rise
- blood LH levels compared with the control group ([1]; Zucker lean rats): no significant rise
- blood LH level compared to the control group ([2]; 0.5 nmol and 5 nmol intraventricular, 10 min after injection): significant increase
- other pituitary hormone levels in blood (FSH, GH, TSH, ACTH, prolactin) ([2]; intraventricular, 5 nmol/rat): no other pituitary hormone levels were changed
- blood LH level compared with the control group ([3]; 1 nmol administration group): tendency to rise
- time of peak of blood LH rise after the administration ([3]; 5 nmol administration group): 30 min
- blood LH level compared with the control group ([3]; 5 nmol administration group): significant rise
